Assay results published in patent publication US7358236B1 (priority 2002, dated 2008).
Like-named read-outs stand apart in the source and are kept apart here.

Key:
[1] = test system: heart tissue; experiment: Histopathology of heart tissue after single dose VTA, and protective effect of propranolol; details: for Heart histopathology with propranolol pretreatment: 2 mg/kg Propranolol Hydrochloride 1 hour prior to CA-4DP 100 mg/kg
[2] = rat, in vivo
[3] = test system: tumor blood flow; details: cited from earlier work

Compound	MABP (antihypertensive co-administered with CA-4DP 30 mg/kg i.p., 1 hour after CA-4DP dosing) [mmHg]	Heart Rate (antihypertensive co-administered with CA-4DP 30 mg/kg i.p., 1 hour post CA-4DP dosing) [bpm]	Heart histopathology with propranolol pretreatment ([1]; 6 or 24 hours post-treatment)	Heart histopathology with propranolol pretreatment ([1]; 4 days)	MABP stabilized level [2] [mmHg]	Heart Rate (rat, in vivo) [bpm]	Increase of MABP versus control animals (rat, in vivo, ip, 30 mg/kg) [%]	MABP (rat, in vivo, ip, 30 mg/kg) [mmHg]	Blood flow in vital tissues (heart, kidney, small intestine) ([3]; 100 mg/kg, rat)	Reduction in tumor blood flow ([3]; 100 mg/kg, rat) [fold]	Mean Arterial Blood Pressure change ([3]; almost immediately following administration)	Histopathological changes in the heart ([1]; CA-4DP 100 mg/kg i.v. single dose, overall)	Histopathological changes in the heart ([1]; CA-4DP 100 mg/kg i.v., at 6 hours)	Histopathological changes in the heart ([1]; CA-4DP 100 mg/kg i.v., at 24 hours)	Histopathological changes in the heart ([1]; CA-4DP 100 mg/kg i.v., at 4 days)
CC(C)NCC(O)COc1cccc2ccccc12 (racemic) [propranolol, 1-[ispropylamino]3-[1-napthyloxy]-2-propanol hydrocholoride]	80.2	248.5	no abnormal CA-4DP-related histopathology	cardiac tissue remained healthy	–	–	–	–	–	–	–	–	–	–	–
Combretastatin A-4 Disodium Phosphate Prodrug [CA-4DP]	–	–	–	–	110	265.6	72	107.9	maintained at normal levels	100	substantial but transient increase	necrosis and degeneration of cardiac cells in some localized areas	some blood vessels in the heart tissue were observed dilated	Inflammation cells infiltrated the heart tissue	loss of striation, fragmentation, a manifestation of necrosis and degeneration
